Target: T1, SHP2 (Homo sapiens, UniProt Q06124)
T1 sequence (Q06124 1-593): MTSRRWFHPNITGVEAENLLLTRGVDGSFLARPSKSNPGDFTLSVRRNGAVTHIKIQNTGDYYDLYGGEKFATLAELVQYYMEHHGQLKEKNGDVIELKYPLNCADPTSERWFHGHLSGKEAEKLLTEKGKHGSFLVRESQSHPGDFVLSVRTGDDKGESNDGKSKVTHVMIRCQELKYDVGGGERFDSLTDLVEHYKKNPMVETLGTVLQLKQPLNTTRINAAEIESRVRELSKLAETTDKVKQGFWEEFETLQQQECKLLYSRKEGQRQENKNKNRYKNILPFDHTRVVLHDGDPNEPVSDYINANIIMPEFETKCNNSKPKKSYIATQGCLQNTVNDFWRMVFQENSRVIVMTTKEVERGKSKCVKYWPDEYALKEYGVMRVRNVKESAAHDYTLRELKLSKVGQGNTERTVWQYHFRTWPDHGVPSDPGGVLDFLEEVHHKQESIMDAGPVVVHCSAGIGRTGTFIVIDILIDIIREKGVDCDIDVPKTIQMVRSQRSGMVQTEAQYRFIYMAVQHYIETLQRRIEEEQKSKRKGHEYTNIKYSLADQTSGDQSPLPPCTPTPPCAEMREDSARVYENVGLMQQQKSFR
Assay: SHP2 Allosteric Inhibition Assay
Type: biochemical
Settings: 0.5 nM SHP2 activated with 0.5 μM peptide IRS1_pY1172(dPEG8)pY1222; surrogate substrate DiFMUP, prompt fluorescence, 25° C.
Description: SHP2 Allosteric Inhibition Assay
SHP2 is allosterically activated through binding of bis-tyrosyl-phorphorylated peptides to its Src Homology 2 (SH2) domains. The latter activation step leads to the release of the auto-inhibitory interface of SHP2, which in turn renders the SHP2 protein tyrosine phosphatase (PTP) active and available for substrate recognition and reaction catalysis. The catalytic activity of SHP2 was monitored using the surrogate substrate DiFMUP in a prompt fluorescence assay format.
After 30-60 minutes incubation at 25° C., the surrogate substrate DiFMUP (Invitrogen, cat# D6567) was added to the reaction and incubated at 25° C. for 30 minutes. […] The inhibitor dose response curves were analyzed using normalized IC50 regression curve fitting with control based normalization.

| Compound | AC50 [nM] |
| --- | --- |
| CC1(CN)CCN(c2cnc(Sc3ccnc(N)c3Cl)cn2)CC1O (single isomer, unassigned) [Example 39] | 28.2 |
| CC1(CN)CCN(c2cnc(Sc3ccnc(N)c3Cl)cn2)CC1O (single isomer, unassigned) [Example 40] | 108 |
| NC1=NC2(CCN(c3cnc(Sc4ccnc(Cl)c4Cl)cn3)CC2)CO1 [Example 4, 8-(5-((2,3-dichloropyridin-4-yl)thio)pyrazin-2-yl)-3-oxa-1,8-diazaspiro[4.5]dec-1-en-2-amine] | 17.4 |
| CC1(N)CCN(c2cnc(Sc3cccnc3C(F)(F)F)cn2)CC1 [Example 6, 4-methyl-1-(5-((2-(trifluoromethyl)pyridin-3-yl)thio)pyrazin-2-yl)piperidin-4-amine] | 127 |
| N[C@@H]1CCCC12CCN(c1cnc(Sc3cnnc(O)c3Cl)cn1)CC2 [Example 7, (R)-5-((5-(1-amino-8-azaspiro[4.5]decan-8-yl)pyrazin-2-yl)thio)-4-chloropyridazin-3-ol] | 213 |
| CC1(CN)CCN(c2cnc(Sc3ccc(N)cc3Cl)cn2)CC1 [Example 9, 4-((5-(4-(aminomethyl)-4-methylpiperidin-1-yl)pyrazin-2-yl)thio)-3-chloroaniline] | 30.6 |
| CC1(CN)CCN(c2cnc(Sc3cccc(N)c3Cl)cn2)CC1 [Example 22] | 10 |
| N[C@@H]1COCC12CCN(c1cnc(Sc3ccncc3Cl)cn1)CC2 [Example 23] | 10.4 |
| Nc1cc(Sc2cnc(N3CCC4(CC3)COC[C@H]4N)cn2)c(Cl)c(Cl)n1 [Example 24] | 10.4 |
| C[C@@H]1OCC2(CCN(c3cnc(Sc4cc(N)nc(Cl)c4Cl)cn3)CC2)[C@@H]1N [Example 28] | 14.1 |
| Nc1cc(Sc2cnc(N3CCC4(CCC[C@H]4N)CC3)cn2)c(Cl)c(Cl)n1 [Example 33] | 19.3 |
| N[C@@H]1CCCC12CCN(c1cnc(Sc3cccnc3C(F)(F)F)cn1)CC2 [Example 35] | 20.8 |
| CC1(N)CCN(c2cnc(Sc3cccc(N)c3Cl)cn2)CC1 [Example 36] | 23.6 |
| NCC1(c2ccccn2)CCN(c2cnc(Sc3ccnc(N)c3Cl)cn2)CC1 [Example 45] | 47.1 |
| CC1(CN)CCN(c2cnc(Sc3cccnc3C(F)(F)F)cn2)CC1 [Example 46] | 47.6 |
| N[C@@H]1COCC12CCN(c1cnc(Sc3cccnc3C(F)(F)F)cn1)CC2 [Example 47] | 56 |
| N[C@@H]1COCC12CCN(c1cnc(Sc3ccncc3C(F)(F)F)cn1)CC2 [Example 49] | 66.1 |
| CC1(CN)CCN(c2cnc(Sc3cc(N)nc(Cl)c3Cl)cn2)CC1 [Example 59] | 155 |
| CC(C)c1ccccc1Sc1cnc(N2CCC3(CCC[C@H]3N)CC2)cn1 [Example 63] | 44.6 |
| Cc1cccc(Sc2cnc(N3CCC4(CCC[C@H]4N)CC3)cn2)c1 [Example 64] | 48.2 |
| N[C@@H]1CCCC12CCN(c1cnc(Sc3ccccc3OC(F)(F)F)cn1)CC2 [Example 65] | 30.5 |
| CC(C)(C)c1ccccc1Sc1cnc(N2CCC3(CCC[C@H]3N)CC2)cn1 [Example 66] | 1460 |
| N[C@@H]1CCCC12CCN(c1cnc(Sc3ccccc3C(F)(F)F)cn1)CC2 [Example 67] | 920 |
| Nc1ccccc1Sc1cnc(N2CCC3(CCC[C@H]3N)CC2)cn1 [Example 68] | 968 |
| COc1ccccc1Sc1cnc(N2CCC3(CCC[C@H]3N)CC2)cn1 [Example 69] | 41.8 |
| N[C@@H]1CCCC12CCN(c1cnc(Sc3ccccc3F)cn1)CC2 [Example 70] | 30.4 |
| N[C@@H]1CCCC12CCN(c1cnc(Sc3ccccc3)cn1)CC2 [Example 72] | 64.6 |

Now from value to compound:

| AC50 [nM] | Compound |
| --- | --- |
| 72.3 | CC1(CN)CCN(c2cnc(Sc3ccnc(N)c3Cl)cn2)CC1O (single isomer, unassigned) [Example 51] |
| 791 | CC1(CN)CCN(c2cnc(Sc3ccnc(N)c3Cl)cn2)CC1O (single isomer, unassigned) [Example 52] |
| 7.9 | C[C@@H]1OCC2(CCN(c3cnc(Sc4ccnc(N)c4Cl)cn3)CC2)[C@@H]1N [Example 3, (3S,4S)-8-(5-((2-amino-3-chloropyridin-4-yl)thio)pyrazin-2-yl)-3-methyl-2-oxa-8-azaspiro[4.5]decan-4-amine] |
| 67 | N#Cc1c(Sc2cnc(N3CCC4(CCC[C@H]4N)CC3)cn2)ccnc1Cl [Example 5, (R)-4-((5-(1-amino-8-azaspiro[4.5]decan-8-yl)pyrazin-2-yl)thio)-2-chloronicotinonitrile] |
| 434 | Nc1nccc(Sc2cnc(N3CCC4(CCCCN4)CC3)cn2)c1Cl [Example 8, 4-((5-(1,9-diazaspiro[5.5]undecan-9-yl)pyrazin-2-yl)thio)-3-chloropyridin-2-amine] |
| 3.9 | Nc1nccc(Sc2cnc(N3CCC4(CC3)C[C@H](F)C[C@H]4N)cn2)c1Cl [Example 10] |
| 4.1 | Nc1nccc(Sc2cnc(N3CCC4(CC3)C[C@H](O)C[C@H]4N)cn2)c1Cl [Example 11] |
| 5.7 | C[C@H]1OCC2(CCN(c3cnc(Sc4ccnc(N)c4Cl)cn3)CC2)[C@@H]1N [Example 12] |
| 5.9 | CC1CCC2(CCN(c3cnc(Sc4ccnc(N)c4Cl)cn3)CC2)[C@@H]1N (stereo partly shown) [Example 13] |
| 6 | C[C@H]1C[C@@H](N)C2(CCN(c3cnc(Sc4ccnc(N)c4Cl)cn3)CC2)C1 [Example 14] |
| 6 | Nc1cc(Sc2cnc(N3CCC4(CC3)C[C@H](O)C[C@H]4N)cn2)c(Cl)c(Cl)n1 [Example 15] |
| 6.1 | Nc1nccc(Sc2cnc(N3CCC4(CC3)COC[C@H]4N)cn2)c1Cl [Example 16] |
| 6.2 | CO[C@H]1C[C@@H](N)C2(CCN(c3cnc(Sc4ccnc(N)c4Cl)cn3)CC2)C1 [Example 17] |
| 8.2 | CCC1(CN)CCN(c2cnc(Sc3ccnc(N)c3Cl)cn2)CC1 [Example 18] |
| 8.5 | N[C@@H]1COCC12CCN(c1cnc(Sc3ccnc(Cl)c3Cl)cn1)CC2 [Example 19] |
| 8.7 | N[C@@H]1C[C@H](O)CC12CCN(c1cnc(Sc3ccnc(Cl)c3Cl)cn1)CC2 [Example 20] |
| 10.7 | CC1(CN)CCN(c2cnc(Sc3ccnc(N)c3Cl)cn2)CC1 [Example 25] |
| 11.5 | CC1(O)C[C@@H](N)C2(CCN(c3cnc(Sc4ccnc(N)c4Cl)cn3)CC2)C1 (stereo partly shown) [Example 26] |
| 12.1 | Nc1nccc(Sc2cnc(N3CCC4(CC3)C[C@@H](F)C[C@H]4N)cn2)c1Cl [Example 27] |
| 15.5 | CC(C)CC1(CN)CCN(c2cnc(Sc3ccnc(N)c3Cl)cn2)CC1 [Example 29] |

| AC50 [nM] | Compound |
| --- | --- |
| 17 | C[C@@H]1C[C@@H](N)C2(CCN(c3cnc(Sc4ccnc(N)c4Cl)cn3)CC2)C1 [Example 30] |
| 17.6 | CCCC1(CN)CCN(c2cnc(Sc3ccnc(N)c3Cl)cn2)CC1 [Example 31] |
| 17.8 | CC(C)C1(CN)CCN(c2cnc(Sc3ccnc(N)c3Cl)cn2)CC1 [Example 32] |
| 19.6 | N[C@@H]1COCC12CCN(c1cnc(Sc3ccnc(F)c3Cl)cn1)CC2 [Example 34] |
| 24 | Nc1cc(Sc2cnc(N3CCC4(CCC[C@H]4N)CC3)cn2)c(Cl)c(N)n1 [Example 37] |
| 24.7 | CC1CCC2(CCN(c3cnc(Sc4ccnc(N)c4Cl)cn3)CC2)[C@@H]1N (stereo partly shown) [Example 38] |
| 28.2 | CC1(O)C[C@@H](N)C2(CCN(c3cnc(Sc4ccnc(N)c4Cl)cn3)CC2)C1 (stereo partly shown) [Example 41] |
| 31.3 | CCCC1(N)CCN(c2cnc(Sc3ccnc(N)c3Cl)cn2)CC1 [Example 42] |
| 42.6 | CO[C@@H]1C[C@@H](N)C2(CCN(c3cnc(Sc4ccnc(N)c4Cl)cn3)CC2)C1 [Example 43] |
| 45.7 | COC(=O)C1(CN)CCN(c2cnc(Sc3ccnc(N)c3Cl)cn2)CC1 [Example 44] |
| 63.4 | Nc1nccc(Sc2cnc(N3CCC4(CCCN4)CC3)cn2)c1Cl [Example 48] |
| 70.5 | NCC1(CO)CCN(c2cnc(Sc3ccnc(N)c3Cl)cn2)CC1 [Example 50] |
| 215 | Nc1nccc(Sc2cnc(N3CCC4(CC3)COCCN4)cn2)c1Cl [Example 53] |
| 381 | Nc1nccc(Sc2cnc(N3CCC(N)(CO)CC3)cn2)c1Cl [Example 54] |
| 5.1 | N[C@@H]1[C@H](O)[C@@H](O)CC12CCN(c1cnc(Sc3ccnc(Cl)c3Cl)cn1)CC2 [Example 55] |
| 23.8 | Nc1nccc(Sc2cnc(N3CCC4(CC3)CC(F)(F)C[C@H]4N)cn2)c1Cl [Example 56] |
| 43.8 | Nc1nccc(Sc2cnc(N3CCC4(CC3)C[C@H](O)[C@@H](O)[C@H]4N)cn2)c1Cl [Example 57] |
| 454 | C[C@H]1OCC2(CCN(c3cnc(Sc4ccnc(N)c4Cl)cn3)CC2)[C@H]1N [Example 58] |
| 35.1 | C[C@H]1C[C@@H](N)C2(CCN(c3cnc(Sc4cc(N)nc(Cl)c4Cl)cn3)CC2)C1 [Example 60] |
| 145 | Nc1cc(Sc2cnc(N3CCC4(CC3)C[C@H](F)C[C@H]4N)cn2)c(Cl)c(Cl)n1 [Example 61] |

— patent US10287266B2, “Compounds and compositions for inhibiting the activity of SHP2” (NOVARTIS AG, priority 2015, dated 2019)
